Assay results taken from patent publication US6825230B2, “Spiro and dispiro 1,2,4-trixolane antimalarials” (Medicines for Malaria Venture MMV, priority 2002, dated 2004).
Values after ≈ are worked out from the molar mass of the structure shown. Where two headings read alike, the source gives them in different places.

Columns and labels:
[1] = system: chloroquine-resistant K1 strain of P. falciparum; experiment: In vitro antimalarial semiautomated microdilution assay ([3H]-hypoxanthine incorporation), K1 strain; assay type: cell-based, Plasmodium falciparum; conditions: Plasmodium falciparum
Procedure: (§1) Various OZ compounds were tested by the semiautomated microdilution assay against intraerythrocytic forms of Plasmodium falciparum derived from asynchronous stock cultures.
(§2) Fifty percent inhibitory concentration (IC50) were estimated by Logit regression analysis.

[2] = system: ANKA strain of P. berghei; experiment: Single dose STI in vivo screen in infected mice; design: species or system Plasmodium berghei; conditions: for Survival (days) 10 mg/kg po: single 10 mg/kg po in 3% ethanol and 7% Tween 80; for Survival (days) 10 mg/kg po / Survival (days) 10 mg/kg SSV po / Survival (days) 10 mg/kg sc: untreated 6-7 days; for Activity (%) 10 mg/kg po: single 10 mg/kg po in 3% ethanol and 7% Tween 80 on day 1 post-infection; for Activity (%) 10 mg/kg po / Activity (%) 10 mg/kg SSV po / Activity (%) 10 mg/kg sc / Activity (%) 3 mg/kg SSV po: percent reduction in parasitemia on day 3; for Survival (days) 10 mg/kg SSV po: single 10 mg/kg po in SSV; for Activity (%) 10 mg/kg SSV po: single 10 mg/kg po in standard suspending vehicle (SSV) on day 1 post-infection; for Survival (days) 10 mg/kg sc: single 10 mg/kg sc in 3% ethanol and 7% Tween 80; for Activity (%) 10 mg/kg sc: single 10 mg/kg sc in 3% ethanol and 7% Tween 80 on day 1 post-infection; for Survival (days) 3 mg/kg SSV po / Activity (%) 3 mg/kg SSV po: single 3 mg/kg po in SSV
[3] = system: chloroquine-sensitive NF54 strain of P. falciparum; experiment: In vitro antimalarial semiautomated microdilution assay ([3H]-hypoxanthine incorporation), NF54 strain; assay type: cell-based, Plasmodium falciparum; conditions: Plasmodium falciparum
Procedure: as §1, §2

[4] = K1, 72 h, read-out: IC50 (ng/ml) K1, chloroquine-resistant K1 strain, 72 h incubation
[5] = NF54, 72 h, read-out: IC50 (ng/ml) NF54, chloroquine-sensitive NF54 strain, 72 h incubation
[6] = chloroquine-resistant K1 strain, 72 h incubation, read-out: IC50 (ng/ml) K1
[7] = chloroquine-sensitive NF54 strain, 72 h incubation, read-out: IC50 (ng/ml) NF54

Row | SMILES | IC50 [1, 4] | Survival (days) 10 mg/kg po [2] | Activity (%) 10 mg/kg po [2] | Survival (days) 10 mg/kg SSV po [2] | Activity (%) 10 mg/kg SSV po [2] | Survival (days) 10 mg/kg sc [2] | Activity (%) 10 mg/kg sc [2] | IC50 [3, 5] | IC50 [1, 6] | Survival (days) 3 mg/kg SSV po [2] | Activity (%) 3 mg/kg SSV po [2] | IC50 [3, 7]
1 | CS(=O)(=O)c1ccc([C@H]2CC[C@]3(CC2)OOC2(O3)C3CC4CC(C3)CC2C4)cc1 (some centres unmarked) [OZ178] | 21 ng/mL (≈ 50.2 nM) | 7.3 days | 32% | 7.3 days | 23% | 10.0 days | 31% | 27 ng/mL (≈ 64.5 nM) |  |  |  | 
2 | CCS(=O)(=O)CCN1CCC2(CC1)OOC1(O2)C2CC3CC(C2)CC1C3 (centres unmarked) [OZ200, Adamantane-2-spiro-3′-8′-[2′-(ethylsulfonyl)ethyl]-1′,2′,4′-trioxa-8′-azaspiro[4.5]decane] | 1 ng/mL (≈ 2.59 nM) | 7.0 days | 81% | 7.3 days | 78% | 8.0 days | 92% | 2.9 ng/mL (≈ 7.52 nM) |  |  |  | 
3 | O=C(C[C@H]1CC[C@]2(CC1)OO[C@]1(O2)C2CC3CC(C2)CC1C3)NCc1ccccn1 [OZ295] |  |  |  | 7.0 days | 47% |  |  |  | 0.44 ng/mL (≈ 1.07 nM) | 6.4 days | 35% | 0.75 ng/mL (≈ 1.82 nM)
4 | COC(=O)c1cn(C[C@H]2CC[C@]3(CC2)OOC2(O3)C3CC4CC(C3)CC2C4)cn1 (some centres unmarked) [OZ224] |  | 6.0 days | 0% | 5.7 days | 5% | 5.7 days | 20% |  | 2 ng/mL (≈ 4.97 nM) |  |  | 3 ng/mL (≈ 7.45 nM)
5 | O=C(C[C@H]1CC[C@]2(CC1)OO[C@]1(O2)C2CC3CC(C2)CC1C3)Nc1nnn[nH]1 [OZ278] | 23 ng/mL (≈ 59.1 nM) |  |  | 7.3/ND days | 56/ND % |  |  | 39 ng/mL (≈ 100 nM) |  |  |  | 
6 | CC(C)(C)NC(=O)N[C@H]1CC[C@]2(CC1)OOC1(O2)C2CC3CC(C2)CC1C3 (some centres unmarked) [OZ222] |  | 7.7 days | 87% | 7.0 days | 75% | 10.0 days | 99.76% |  | 3.9 ng/mL (≈ 10.3 nM) |  |  | 6.3 ng/mL (≈ 16.6 nM)
7 | C=C1COC2(CCC3(CC2)OOC2(O3)C3CC4CC(C3)CC2C4)OC1 (centres unmarked) [OZ128, Adamantane-2-spiro-3′-11′-methylene-1′,2′,4′,9′,13′-pentaoxadispiro[4.2.5.2]pentadecane] | 0.59 ng/mL (≈ 1.69 nM) | 8.3 days | 99.93% | 8.7 days | 99.95% | 11.7 days | 99.98% | 1.1 ng/mL (≈ 3.16 nM) |  |  |  | 
8 | O=C(O)CCC[C@H]1CC[C@]2(CC1)OOC1(O2)C2CC3CC(C2)CC1C3 (some centres unmarked) [OZ261] |  | 7.0 days | 61% | 7.0 days | 47% | 8.0 days | 92% |  | 39 ng/mL (≈ 111 nM) |  |  | 18 ng/mL (≈ 51.4 nM)
9 | O=C(O)c1ccc(C2(c3ccc(C(=O)O)cc3)OOC3(O2)C2CC4CC(C2)CC3C4)cc1 (centres unmarked) [OZ135, Adamantane-2-spiro-3′-5′,5′-bis(4′-carboxyphenyl)-1′,2′,4′-trioxolane] | > 100 ng/mL | 5.3/5.3/5.3 days | 1% | 5.3/5.3/5.3 days | 0% | 5.3/5.3/5.3 days | 0% | > 100 ng/mL |  |  |  | 
10 | CN(C)C[C@H]1CC[C@]2(CC1)OOC1(O2)C2CC3CC(C2)CC1C3 (some centres unmarked) [OZ232] | 0.3 ng/mL (≈ 0.933 nM) | 8.0 days | 76% | 7.3 days | 74% | 8.7 days | 99.94% | 0.5 ng/mL (≈ 1.56 nM) |  |  |  | 
11 | NOC[C@H]1CC[C@]2(CC1)OO[C@]1(O2)C2CC3CC(C2)CC1C3 [OZ334] | 28 ng/mL (≈ 90.5 nM) |  |  | 6.8 days | 47% |  |  | 20 ng/mL (≈ 64.6 nM) |  | 6.6 days | 13% | 
12 | c1cc(CN2CCC3(CC2)OOC2(O3)C3CC4CC(C3)CC2C4)ccn1 (centres unmarked) [OZ216, Adamantane-2-spiro-3′-8′-(4′-pyridinylmethyl)-1′,2′,4′-trioxa-8′-azaspiro[4.5]decane] |  | 6.3 days | 62% | 7.7 days | 69% | 11.0 days | 99.02% |  | 0.4 ng/mL (≈ 1.12 nM) |  |  | 0.67 ng/mL (≈ 1.88 nM)
13 | O=C(O)c1ccc([C@H]2CC[C@]3(CC2)OOC2(O3)C3CC4CC(C3)CC2C4)cc1 (some centres unmarked) [OZ165] | 39 ng/mL (≈ 101 nM) | 6.3 days | 18% | 6.0 days | 3% | 5.7 days | 9% | > 10 ng/mL |  |  |  | 
14 | [N-]=[N+]=NCC[C@H]1CC[C@]2(CC1)OOC1(O2)C2CC3CC(C2)CC1C3 (some centres unmarked) [OZ228] | 2 ng/mL (≈ 6 nM) | 10.3 days | 99.94% | 6.0 days | 28% | 14.0 days | 99.94% | 2.1 ng/mL (≈ 6.3 nM) |  |  |  | 
15 | C1C2CC3CC1CC(C2)C31OOC2(CCC(NC3CC3)CC2)O1 (centres unmarked) [OZ185] | 1.1 ng/mL (≈ 3.44 nM) | 7.7 days | 86% | 6.7 days | 56% | 10.7 days | 99.96% | 1.4 ng/mL (≈ 4.38 nM) |  |  |  | 
16 | NC(=O)C(=O)NC[C@H]1CC[C@]2(CC1)OOC1(O2)C2CC3CC(C2)CC1C3 (stereo partly drawn) [OZ268, N-(cis-Adamantane-2-spiro-3′-1′,2′,4′-trioxaspiro[4.5]decane-8′-methyl)oxamide] |  | 9.3 days | 99.86% | 13.3 days | 99.47% | 9.7 days | 99.92% |  | 0.44 ng/mL (≈ 1.21 nM) |  |  | 0.71 ng/mL (≈ 1.95 nM)
17 | O=C1CN(C[C@H]2CC[C@]3(CC2)OOC2(O3)C3CC4CC(C3)CC2C4)CCN1 (some centres unmarked) [OZ285] |  |  |  | 8.7 days | 99.81% |  |  |  | 1.3 ng/mL (≈ 3.45 nM) | 7.6 days | 72% | 1.8 ng/mL (≈ 4.78 nM)
18 | c1ccc(CN2CCC3(CC2)OOC2(O3)C3CC4CC(C3)CC2C4)cc1 (centres unmarked) [OZ220, Adamantane-2-spiro-3′-8′-benzyl-1′,2′,4′-trioxa-8′-azaspiro[4.5]decane] |  | 6.0 days | 40% | 5.3 days | 0% | 10.0 days | 99.95% |  | 6.9 ng/mL (≈ 19.4 nM) |  |  | 4.9 ng/mL (≈ 13.8 nM)
